34 compounds from PMC11995724, “Antibiotic target discovery by integrated phenotypic and activity-based profiling of electrophilic fragments” (Cell chemical biology, 2025) can be followed below.

A short description of this series: in vitro. The settings on record: human, hek293t cells.
Take `N#CC(=Cc1ccc(-c2ccc(F)cc2)o1)C(=O)NC1CCCCC1` [9-H17, 2-cyano-N-cyclohexyl-3-[5-(4-fluorophenyl)furan-2-yl]prop-2-enamide]: the viability (as a rule, a read-out of living cells in per cent, often relative to untreated cells) at 48 h, 25 µM is 77.1%.

Take `CC(Cl)C(=O)N1Cc2ccccc2C(n2cccn2)C1` (stereo not shown) [6-F20, 2-chloro-1-[4-(1H-pyrazol-1-yl)-1,2,3,4-tetrahydroisoquinolin-2-yl]propan-1-one]: the viability at 48 h, 25 µM was determined as 103%.

Regarding `C=CC(=O)NC(C)Cn1cncn1` (stereo not shown) [3-C11, N-[1-(1H-1,2,4-triazol-1-yl)propan-2-yl]prop-2-enamide], the viability at 48 h, 25 µM was 37.9%.

Regarding `CCCn1c(C)cc(C=C(C#N)C(=O)N2CCC2)c1C` [8-L08, 2-(azetidine-1-carbonyl)-3-(2,5-dimethyl-1-propyl-1H-pyrrol-3-yl)prop-2-enenitrile], the viability at 48 h, 25 µM was determined as 77.4%.

In the case of `Cn1cc(C=C(C#N)C(=O)Nc2ccc(Oc3ccccc3)cc2)cn1` [9-M10, 2-cyano-3-(1-methyl-1H-pyrazol-4-yl)-N-(4-phenoxyphenyl)prop-2-enamide], the viability at 48 h, 25 µM came out at 109%.

`C=CC(=O)N1CCCC(S(C)(=O)=O)C1` (stereo not shown) [1-J18, 1-(3-methanesulfonylpiperidin-1-yl)prop-2-en-1-one]: the viability at 48 h, 25 µM came to 63.9%.

With `C=CC(=O)Nc1cc(CC(C)(C)C)no1` [1-I19, N-[3-(2,2-dimethylpropyl)-1,2-oxazol-5-yl]prop-2-enamide], the viability at 48 h, 25 µM is 1.69%.

`CC1CC(C(=O)CCl)CO1` (stereo not shown) [10-M13, 2-chloro-1-(5-methyloxolan-3-yl)ethan-1-one]: the viability at 48 h, 25 µM came out at 102%.

Regarding `O=C(CCl)C1CC1(Cl)Cl` (stereo not shown) [10-K09, 2-chloro-1-(2,2-dichlorocyclopropyl)ethan-1-one], the viability at 48 h, 25 µM was 1.74%.

On to `C=CC(=O)Nc1cccc(C(O)C(F)(F)F)c1` (stereo not shown) [1-M16, N-[3-(2,2,2-trifluoro-1-hydroxyethyl)phenyl]prop-2-enamide], for which the viability at 48 h, 25 µM was determined as 102%.

As to `COCCn1c(C)cc(C(=O)CCl)c1C` [10-D13, 2-chloro-1-[1-(2-methoxyethyl)-2,5-dimethyl-1H-pyrrol-3-yl]ethan-1-one], the viability at 48 h, 25 µM amounted to 110%.

Consider `N#CC(=Cc1ccc(Sc2ccccc2)o1)C(=O)Nc1ccccc1` [8-K05, 2-cyano-N-phenyl-3-[5-(phenylsulfanyl)furan-2-yl]prop-2-enamide], for which the viability at 48 h, 25 µM turned out to be 70%.

In the case of `C=CC(=O)NC1CCc2ccccc21` (stereo not shown) [1-A14, N-(2,3-dihydro-1H-inden-1-yl)prop-2-enamide], the viability at 48 h, 25 µM is 107%.

In the case of `C=CC(=O)N1CCC(C(=O)NCCc2cc[nH]n2)CC1` [3-E07, 1-(prop-2-enoyl)-N-[2-(1H-pyrazol-3-yl)ethyl]piperidine-4-carboxamide], the viability at 48 h, 25 µM was 34.2%.

On to `Cn1c(=O)c(C(=O)CCl)c(N)n(Cc2ccccc2)c1=O` [10-L15, 6-amino-1-benzyl-5-(2-chloroacetyl)-3-methyl-1,2,3,4-tetrahydropyrimidine-2,4-dione], for which the viability at 48 h, 25 µM was 76.7%.

On to `Cc1ncccc1NC(=O)[C@H](C)NC(=O)C(C)Cl` (stereo partly drawn) [6-D09, 2-chloro-N-[(1S)-1-[(2-methylpyridin-3-yl)carbamoyl]ethyl]propanamide], for which the viability at 48 h, 25 µM came out at 99.8%.

In the case of `Cc1nc2cc(NC(=O)C(C#N)=Cc3ccco3)ccc2n1C` [9-B18, 2-cyano-N-(1,2-dimethyl-1H-1,3-benzodiazol-5-yl)-3-(furan-2-yl)prop-2-enamide], the viability at 48 h, 25 µM was determined as 106%.

Turning to `Cc1cc(C(=O)C(C)Cl)c(C)n1-c1ccc(OC(F)F)cc1` (stereo not shown) [10-E10, 2-chloro-1-{1-[4-(difluoromethoxy)phenyl]-2,5-dimethyl-1H-pyrrol-3-yl}propan-1-one], the viability at 48 h, 25 µM turned out to be 84.6%.

Turning to `C=CC(=O)N(Cc1ccc2c(c1)CCC2)Cc1c(C)noc1C` [1-L09, N-[(2,3-dihydro-1H-inden-5-yl)methyl]-N-[(3,5-dimethyl-1,2-oxazol-4-yl)methyl]prop-2-enamide], the viability at 48 h, 25 µM was found to be 92.1%.

For `COc1cc(NC(=O)CCl)cc(OC)c1OC` [4-N12, 2-chloro-N-(3,4,5-trimethoxyphenyl)acetamide], the viability at 48 h, 25 µM came to 1.27%.

As for `C=CC(=O)N1CCC(C(=O)N[C@H]2CCOc3c(F)cccc32)CC1` [3-F12, N-[(4S)-8-fluoro-3,4-dihydro-2H-1-benzopyran-4-yl]-1-(prop-2-enoyl)piperidine-4-carboxamide], the viability at 48 h, 25 µM was 64.9%.

Regarding `C=CCN(Cc1ccc(Cl)s1)C(=O)CCl` [5-M05, 2-chloro-N-[(5-chlorothiophen-2-yl)methyl]-N-(prop-2-en-1-yl)acetamide], the viability at 48 h, 25 µM came out at 0.327%.

As for `CC(Cl)C(=O)N1CCC(c2nc(C3CC3)no2)(C(F)(F)F)C1` (stereo not shown) [7-K12, 2-chloro-1-[3-(3-cyclopropyl-1,2,4-oxadiazol-5-yl)-3-(trifluoromethyl)pyrrolidin-1-yl]propan-1-one], the viability at 48 h, 25 µM turned out to be 83.5%.

As to `CCCn1c(C)cc(C=C(C#N)C(=O)Nc2ccc3c(c2)OCO3)c1C` [9-G07, N-(1,3-dioxaindan-5-yl)-2-cyano-3-(2,5-dimethyl-1-propyl-1H-pyrrol-3-yl)prop-2-enamide], the viability at 48 h, 25 µM worked out at 100%.

In the case of `Cc1cc(C)c(-c2csc(NC(=O)CCl)n2)cc1C` [4-G17, 2-chloro-N-[4-(2,4,5-trimethylphenyl)-1,3-thiazol-2-yl]acetamide], the viability at 48 h, 25 µM is 0.339%.

For the compound `C=CC(=O)NCc1ncccc1S(C)(=O)=O` [2-D21, N-[(3-methanesulfonylpyridin-2-yl)methyl]prop-2-enamide], the viability at 48 h, 25 µM was 80%.

Regarding `Cc1csc(COC2CCN(C(=O)CCl)C2)n1` (stereo not shown) [5-M08, 2-chloro-1-{3-[(4-methyl-1,3-thiazol-2-yl)methoxy]pyrrolidin-1-yl}ethan-1-one], the viability at 48 h, 25 µM was determined as 1.8%.

In the case of `C=CC(=O)N1CCC(C)C1` (stereo not shown) [2-H17, 1-(3-methylpyrrolidin-1-yl)prop-2-en-1-one], the viability at 48 h, 25 µM stood at 71.5%.

Take `COc1ccc(C2=NN(C(=O)CCl)C(c3cccc(F)c3)C2)cc1` (stereo not shown) [6-P04, 2-chloro-1-[5-(3-fluorophenyl)-3-(4-methoxyphenyl)-4,5-dihydro-1H-pyrazol-1-yl]ethan-1-one]: the viability at 48 h, 25 µM was 0.182%.

As to `Cc1nsc(N2CCN(C(=O)C(C)Cl)CC2)c1C#N` (stereo not shown) [6-H15, 5-[4-(2-chloropropanoyl)piperazin-1-yl]-3-methyl-1,2-thiazole-4-carbonitrile], the viability at 48 h, 25 µM worked out at 91.4%.

Take `C=CC(=O)N1CCc2[nH]cnc2C1c1ccnn1C` (stereo not shown) [3-A07, 1-[4-(1-methyl-1H-pyrazol-5-yl)-1H,4H,5H,6H,7H-imidazo[4,5-c]pyridin-5-yl]prop-2-en-1-one]: the viability at 48 h, 25 µM worked out at 29.2%.

With `CC(C)Oc1ccc(C=C(C#N)C(=O)NC2CCCC2)cc1` [8-O10, 2-cyano-N-cyclopentyl-3-[4-(propan-2-yloxy)phenyl]prop-2-enamide], the viability at 48 h, 25 µM was determined as 57.5%.

Turning to `Cc1cc(CN(C(=O)CCl)c2ccc(F)cc2)nn1C` [5-E14, 2-chloro-N-[(1,5-dimethyl-1H-pyrazol-3-yl)methyl]-N-(4-fluorophenyl)acetamide], the viability at 48 h, 25 µM stood at 0.639%.

Regarding `C=CC(=O)N1CCOCC2(CCOCC2)C1` [2-C10, 1-{3,8-dioxa-11-azaspiro[5.6]dodecan-11-yl}prop-2-en-1-one], the viability at 48 h, 25 µM came out at 85.4%.
